Experimental data published in article PMC10609854 (Pharmaceuticals, 2023).
Structures can show the parent of a compound that is named as a salt.

How the values were obtained:
formalin-induced pain = experiment: formalin test; assay type: in vivo, mice; details: mice; for duration of the nociceptive response, acute phase of the formalin test: i.p. 30 min before test, 0–5 min after formalin; for influence on the analgesic effect of E153, late phase of the formalin test: 15 mg/kg given 10 min before E153 (15 mg/kg i.p.); for duration of the nociceptive response, late phase of the formalin test: single administration alone, 15 mg/kg
Description: The mice received an intraperitoneal (i.p.) injection of either the test compound or a control solution. After 30 min, a 20 μL injection of a 2.5% formalin solution was administered into the right hind paw. Right after the formalin injection, the animals were individually placed into glass containers and observed for the following 30 min. During specific time intervals (0–5 min, referred to as Phase I, and 15–30 min, referred to as Phase II, post-formalin injection), the time spent by the animals licking or biting the injected paw was recorded..

[1] = system: histamine-induced pruritus; experiment: histamine-induced pruritus; assay type: in vivo; details: mice; for influence on the antipruritic activity of E153, histamine-induced pruritus: 15 mg/kg given 10 min before E153 (5 mg/kg i.p.)
Description: (§1) The area (around 2 cm^2) of the nape of mice was shaved at least 2 days prior to experiments. On the day of the experiment, each mouse was individually placed in plastic chambers (15 × 15 × 30 cm). After the 30 min period of habituation, the mice received an intradermal (i.d.) injection of histamine dihydrochloride (10 µmol/site), chloroquine (CQ, 200 µg/site), or SLIGRL-NH2 (40 nmol/site), which were dissolved in physiological saline and administrated at the constant volume of 20 μL. Immediately following the injection, scratching (series of movements considered as a single scratching bout usually consisted of three single scratches) of the injected site by the hind paw was counted for 60 min, 30 min, or 45 min after histamine, CQ, and SLIGRL-NH2 injection, respectively.

CQ-induced pruritus = experiment: chloroquine (CQ)-induced pruritus; assay type: in vivo, mice; details: mice, 10 mg/kg i.p.; 30 min observation
Description: as §1

SLIGRL-induced pruritus = experiment: SLIGRL-induced pruritus; assay type: in vivo; details: mice, 10 mg/kg i.p.; 45 min observation
Description: as §1

SMILES | duration of the nociceptive response, acute phase of the formalin test (formalin-induced pain) | influence on the analgesic effect of E153, late phase of the formalin test (formalin-induced pain) | duration of the nociceptive response, late phase of the formalin test (formalin-induced pain) | influence on the antipruritic activity of E153, histamine-induced pruritus [1] | scratching behavior, histamine-induced pruritus ([1]; administered alone, 15 mg/kg) | other results
Cc1cc(OCCN2CCOCC2)nn1-c1ccc2ccccc2c1.Cl [Compound S1RA, 4-[2-[[5-methyl-1-(2-naphthalenyl)1H-pyraol-3-yl]oxy]ethyl]-morpholine hydro-chloride] | lack of activity | – | – | – | – | activity in the late phase of the formalin test (formalin-induced pain; 15 mg/kg i.p.): inactive; paw licking and biting behavior, late phase of the formalin test (formalin-induced pain; 30 mg/kg i.p.): showed activity; nociceptive response, late phase of the formalin test, joint administration (formalin-induced pain; JNJ 5207852 10 mg/kg + S1RA 30 mg/kg i.p.): did not affect the activity of the compounds
c1cc(OCCCN2CCCCC2)ccc1CN1CCCCC1 [JNJ 5207852, 1-[3-[4-(1-piperidinylmethyl)phenoxy]propyl]piperidine hydrochloride] | lack of activity | – | – | – | – | activity in the late phase of the formalin test (formalin-induced pain; 10 mg/kg i.p.): inactive; paw licking and biting behavior, late phase of the formalin test (formalin-induced pain; 15 and 30 mg/kg i.p.): significantly attenuated; nociceptive response, late phase of the formalin test, joint administration (formalin-induced pain; JNJ 5207852 15 mg/kg + S1RA 15 mg/kg i.p., compared to saline): significantly stronger decrease in nociceptive response
Cl.O=C(OCCN1CCOCC1)C1(c2ccccc2)CCCCC1 [PRE-084, 2-[4-morpholinethyl]1-phenylcyclohexanecarboxylate hydrochloride] | – | antagonized the effects of test compound | did not change | significant decrease in E153 activity | did not alter animal scratching behavior | –
C[C@@H](N)Cc1c[nH]cn1 [RAMH, (R)-(-)-α-methylhistamine] | – | antagonized the effects of test compound | did not change | had no effect | did not alter animal scratching behavior | –
COc1ccc(CN(CCN(C)C)c2ccccn2)cc1 [pyrilamine, reference compound] | – | – | – | – | – | scratching behavior, histamine-induced pruritus ([1]; i.p. 30 min before i.d. histamine): significantly reduced scratching behavior; number of scratch bouts, CQ-induced pruritus (CQ-induced pruritus): not effective; scratch bouts, SLIGRL-induced pruritus (SLIGRL-induced pruritus): not effective
